{"source": "patent US20130041005A1", "about": "“PHARMACEUTICAL COMPOSITIONS COMPRISING NEUROPILIN INHIBITORS, AND THEIR USE FOR THE PREVENTION AND/OR TREATMENT OF ANGIOGENIC DISORDERS AND CANCERS” (TRAGEX PHARMA, priority 2011, published 2013)", "tested_on": "LNCaP", "test": "WST-1 proliferation assay, LNCaP", "type": "cell-based", "conditions": "Homo sapiens; Prostate LNCaP, 72 h; read-out: Anti-proliferative activity IC50 (μM) ± SD", "source_text": "Several cancer cell lines were used: breast cancer cells (MDA-MB-231 (ATTCC® Number HTB-26™), MDA-MB-436 (ATTCC® Number HTB-130™), MDA-MB-438, BT-474 (ATTCC® Number HTB-20™)); cervical cancer cells (HeLa (ATTCC® Number CCL-2™)); colon cancer cells (HCT-116 (ATTCC® Number CCL-247™) and HT-29 (ATTCC® Number HTB-38™)); osteosarcoma cells (U2OS (ATTCC® Number HTB-96™)); pancreas cancer cells (MIA PaCa-2 (ATTCC® Number CRL-1420™) and Panc-10.5 (ATTCC® Number CRL-2547™)); prostate cancer cells (PC-3 (ATTCC® Number CRL-1435™) and LNCaP (ATTCC® Number CRL-1740™)); brain cancer cells (U87 glioblastoma (ATTCC® Number HTB-14™) and SH-SYSY neuroblastoma (ATTCC® Number CRL-2266™)). […]\nAfter observation of cells under the microscope, old media were removed and the adherent cells washed gently twice with PBS (Phosphate Buffer Saline, —Ca^2+, —Mg^2+, Lonza cat no: 17-512F/12). […] 50 μl of this solution were transferred in 20 μl of isotonic solution and the cells were counted by count cellular (Beckman Coulter). […]\nThe cell proliferation WST-1 assay is a colorimetric assay for the quantification of cell proliferation and viability, based on the enzymatic cleavage of the tetrazolium salt WST-1 added to the culture medium, to a water soluble colored formazan dye, detected by absorbance at 450 nm, by mitochondrial succinate-tetrazolium reductase in viable cells. […]"}
{"smiles": "O=C(NC(=S)Nc1cccc(-c2nc3ccccc3[nH]2)c1)c1ccc2c(c1)OCCO2", "note": "[Compound 2, N-[3-(1H-benzimidazol-2-yl)phenyl]-N′-(2,3-dihydro-1,4-benzodioxin-6-ylcarbonyl)thiourea]", "values": [{"measurement": "IC50", "result": "1.3 ± 0.15", "unit": "µM"}]}
{"smiles": "Cc1ccc(-c2nc3ccccc3[nH]2)cc1NC(=S)NC(=O)c1ccc2c(c1)OCCO2", "note": "[Compound 1, N-[5-(1H-benzimidazol-2-yl)-2-methylphenyl]-N′-(2,3-dihydro-1,4-benzodioxin-6-ylcarbonyl)thiourea]", "values": [{"measurement": "IC50", "result": "1.4 ± 0.13", "unit": "µM"}]}
